These results are taken from ChEMBL document CHEMBL1201862, “PubChem BioAssay data set” (2004).

Among the test systems are 786-0; A498; COLO 205; HCT-116; HOP-62; Hs-578T; K562; LOX IMVI; MDA-MB-231; MDA-N; NCI-H522; NCI/ADR-RES; OVCAR-5; RXF 393; SF-268; SF-295; SK-OV-3; U-251; CCRF-CEM; SK-MEL-2.
Holding throughout (assay): inhibition of tumour cell growth, NCI panel, 48 h

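Tested at 5 concentrations; 48 h exposure; 96-well plates; endpoints linearly interpolated, else capped at highest concentration. Here, GI50 denotes the concentration required for 50% inhibition of growth.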 Active and inactive are the calls of the source. No stated cut-off is given here; in the data, active = GI50 up to about 1.1 µM and inactive = higher. Where only a bound is given, the exact number is not on record here.

In the case of `S=C(N/N=C\C=N/NC(=S)N1CCCCC1)N1CCCCC1`, the GI50 was 0.525 µM (active) in the experiment on 786-0; 1.34 µM (inactive) in the experiment on A498; 0.592 µM (active) in the experiment on COLO 205; 0.124 µM (active) in the experiment with HCT-116; 0.203 µM (active) in the experiment on HOP-62; 0.879 µM (active) in the experiment on Hs-578T. Further, the GI50 is 0.547 µM (active) with K562; 0.32 µM (active) with LOX IMVI; > 96.2 µM (inactive) with MDA-MB-231; > 26.1 µM (inactive) in the experiment with MDA-N; 0.608 µM (active) in the experiment with NCI-H522; 0.267 µM (active) in the experiment with NCI/ADR-RES. The GI50 is > 29.3 µM (inactive) in the experiment with OVCAR-5; 0.296 µM (active) with RXF 393; 0.231 µM (active) in the experiment on SF-268; 0.155 µM (active) in the experiment on SF-295; 0.692 µM (active) in the experiment with SK-OV-3; 0.207 µM (active) with U-251.

Consider `CCC(CCCN)Nc1cc(OC)cc2c(C)ccnc12` (stereo unspecified), for which the GI50 with 786-0 was 15.4 µM (inactive); in the experiment on A498, 18.7 µM (inactive); in the experiment on CCRF-CEM, 18.4 µM (inactive); with COLO 205, 18.2 µM (inactive); with HCT-116 it was 15.9 µM (inactive); in the experiment with HOP-62 it was 15.1 µM (inactive). Moreover, the GI50 is 13 µM (inactive) with Hs-578T; 15 µM (inactive) in the experiment with K562; 16.3 µM (inactive) in the experiment on LOX IMVI; 13.3 µM (inactive) in the experiment on MDA-MB-231; 17.5 µM (inactive) in the experiment on MDA-N; 25.1 µM (inactive) in the experiment with NCI/ADR-RES. For the same compound, the GI50 is 17.7 µM (inactive) in the experiment with OVCAR-5; 13.8 µM (inactive) in the experiment with RXF 393; 15.3 µM (inactive) in the experiment with SF-268; 17.3 µM (inactive) in the experiment with SF-295; 20.8 µM (inactive) in the experiment with SK-MEL-2; 13.6 µM (inactive) in the experiment on SK-OV-3.

As for `O=C(/C=C/c1ccc(OCc2ccccc2)cc1)NCc1ccc(C(=O)NCCc2c[nH]c3ccccc23)cc1`, the GI50 was 3.61 µM (inactive) in the experiment with 786-0; 38.9 µM (inactive) in the experiment on A498; 70.6 µM (inactive) in the experiment with CCRF-CEM; > 75.5 µM (inactive) in the experiment on COLO 205; 15.4 µM (inactive) with HCT-116; 3.66 µM (inactive) with HOP-62. The GI50 was 6.35 µM (inactive) in the experiment with Hs-578T; 44.4 µM (inactive) in the experiment with K562; 44.3 µM (inactive) in the experiment with LOX IMVI; 13.8 µM (inactive) in the experiment on MDA-MB-231; > 100 µM (inactive) in the experiment with MDA-N; > 100 µM (inactive) in the experiment on NCI/ADR-RES. In addition, the GI50 with OVCAR-5 is 18.2 µM (inactive); with RXF 393, 7.06 µM (inactive); in the experiment on SF-268 it was 11.1 µM (inactive); in the experiment with SF-295, 3.41 µM (inactive); in the experiment with SK-MEL-2 it was 31 µM (inactive); with SK-OV-3 it was 15.7 µM (inactive). The GI50 in the experiment with U-251 was 4.37 µM (inactive).

With `CC(=O)Oc1c2c(c3n(c1=O)CCCC3)C(=O)N(c1ccccc1)C2=O`, the GI50 in the experiment on 786-0, in the experiment with CCRF-CEM, with COLO 205, in the experiment with HCT-116, with HOP-62 and with Hs-578T was > 100 µM (inactive) throughout. In addition, the GI50 with K562 is > 100 µM (inactive); with LOX IMVI, > 100 µM (inactive); with MDA-MB-231 it was > 100 µM (inactive); with MDA-N, 52.8 µM (inactive); with NCI-H522 it was 61.5 µM (inactive); in the experiment on NCI/ADR-RES, 65.3 µM (inactive). The GI50 with OVCAR-5 was > 100 µM (inactive); with RXF 393 it was > 100 µM (inactive); in the experiment on SF-268, > 100 µM (inactive); in the experiment with SF-295, 61 µM (inactive); with SK-MEL-2 it was 45.8 µM (inactive); in the experiment with SK-OV-3 it was > 100 µM (inactive). Further, in the experiment with U-251, the GI50 was > 100 µM (inactive).

Consider `COc1cccc(/C=N/n2c(C)n[nH]c2=O)c1`, for which the GI50 is > 100 µM (inactive) in the experiment on 786-0; 25.5 µM (inactive) in the experiment on A498; > 100 µM (inactive) with CCRF-CEM; > 100 µM (inactive) with COLO 205; > 100 µM (inactive) in the experiment with HCT-116; 80.7 µM (inactive) with HOP-62. Moreover, the GI50 is 16.8 µM (inactive) in the experiment with Hs-578T; > 100 µM (inactive) in the experiment on K562; > 100 µM (inactive) in the experiment on MDA-MB-231; > 100 µM (inactive) in the experiment on MDA-N; > 100 µM (inactive) in the experiment with NCI/ADR-RES; > 100 µM (inactive) with OVCAR-5. Moreover, the GI50 in the experiment on RXF 393 is 18.8 µM (inactive); with SF-268 it was > 100 µM (inactive); in the experiment with SF-295, > 100 µM (inactive); in the experiment with SK-MEL-2, > 100 µM (inactive); in the experiment with SK-OV-3, > 100 µM (inactive); in the experiment on U-251, > 100 µM (inactive).

Turning to `COc1cc([C@H]2c3[nH]c4ccccc4c3C[C@H]3COC(=O)N32)cc(OC)c1O`, the GI50 in the experiment with 786-0 was 0.145 µM (active); in the experiment with A498, 0.0509 µM (active); in the experiment with CCRF-CEM, 0.0209 µM (active); in the experiment with COLO 205, 0.166 µM (active); with HCT-116, 0.0344 µM (active); with HOP-62, 0.0462 µM (active). For the same compound, the GI50 in the experiment on Hs-578T is 0.0335 µM (active); in the experiment with K562 it was 0.0153 µM (active); in the experiment with LOX IMVI, < 0.01 µM (active); in the experiment with MDA-MB-231, 0.0408 µM (active); in the experiment on MDA-N, < 0.01 µM (active); in the experiment with NCI-H522, 0.015 µM (active). For the same compound, the GI50 in the experiment with NCI/ADR-RES was 0.0667 µM (active); with OVCAR-5, 13.3 µM (inactive); with RXF 393, 0.0405 µM (active); in the experiment on SF-268 it was 0.0221 µM (active); in the experiment with SF-295 it was 0.0189 µM (active); in the experiment on U-251, 0.0326 µM (active).

Turning to `CCOC(=O)c1nc2ccc(C(F)(F)F)cc2nc1NCc1cc(OC)c(OC)c(OC)c1`, the GI50 in the experiment on 786-0 is 41.6 µM (inactive); in the experiment with A498, > 100 µM (inactive); in the experiment on COLO 205, 29.3 µM (inactive); in the experiment with HCT-116 it was 30 µM (inactive); with HOP-62 it was > 100 µM (inactive); in the experiment on Hs-578T, 32.3 µM (inactive). Moreover, the GI50 in the experiment with LOX IMVI was 35.7 µM (inactive); in the experiment on MDA-MB-231, 60 µM (inactive); with MDA-N, 28.4 µM (inactive); in the experiment on NCI-H522 it was 37.1 µM (inactive); in the experiment with NCI/ADR-RES, 94.8 µM (inactive); in the experiment with OVCAR-5 it was > 100 µM (inactive). Besides, the GI50 in the experiment with RXF 393 is 39.9 µM (inactive); in the experiment with SF-268, 61.8 µM (inactive); with SF-295, > 100 µM (inactive); in the experiment with SK-MEL-2, 40.8 µM (inactive).

Turning to `COc1cc2c(cc1O)CCN[C@@]21CS[C@H]2c3c(OC(C)=O)c(C)c4c(c3C(COC1=O)N1C2C2c3c(cc(C)c(OC)c3O)CC([C@@H]1O)N2C)OCO4` (stereo partly specified), the GI50 in the experiment on 786-0 was 0.0001 µM (active); in the experiment with CCRF-CEM it was < 0.0001 µM (active); with COLO 205, < 0.0001 µM (active); in the experiment on HCT-116, 0.0001 µM (active); in the experiment with HOP-62, < 0.0001 µM (active); in the experiment on Hs-578T, < 0.0001 µM (active). The GI50 in the experiment with K562 is 0.000324 µM (active); with LOX IMVI it was < 0.0001 µM (active); with MDA-MB-231 it was < 0.0001 µM (active); in the experiment on MDA-N it was < 0.0001 µM (active); in the experiment with NCI-H522, < 0.0001 µM (active); in the experiment on NCI/ADR-RES, 0.0001 µM (active). The GI50 in the experiment on OVCAR-5 was 0.0001 µM (active); with RXF 393, < 0.0001 µM (active); in the experiment on SF-268 it was < 0.0001 µM (active); in the experiment with SF-295, < 0.0001 µM (active); with SK-MEL-2 it was < 0.0001 µM (active); in the experiment with SK-OV-3, 0.0001 µM (active). Moreover, the GI50 in the experiment with U-251 was 0.0001 µM (active).

For the compound `CN(C)Cc1cc(C(=O)/C=C/c2ccc(Cl)cc2)cc(CN(C)C)c1O`, the GI50 in the experiment on 786-0 was 5.93 µM (inactive); in the experiment on A498, 12.7 µM (inactive); in the experiment with CCRF-CEM, 14.4 µM (inactive); in the experiment on COLO 205, 4.27 µM (inactive); in the experiment on HCT-116, 12.9 µM (inactive); in the experiment with HOP-62, 4.36 µM (inactive). For the same compound, the GI50 in the experiment on Hs-578T was 17.5 µM (inactive); in the experiment with K562 it was 5.41 µM (inactive); in the experiment with LOX IMVI, 4.43 µM (inactive); in the experiment on MDA-MB-231, 11.4 µM (inactive); in the experiment with MDA-N, 10.4 µM (inactive); in the experiment on NCI-H522, 3.24 µM (inactive). For the same compound, the GI50 in the experiment with NCI/ADR-RES is 15.8 µM (inactive); with OVCAR-5, 24.2 µM (inactive); with RXF 393 it was 10.9 µM (inactive); in the experiment on SF-268, 18.2 µM (inactive); with SF-295, 13.3 µM (inactive); in the experiment with U-251, 13.4 µM (inactive).

Regarding `COc1ccccc1-c1nc(-c2ccccc2O)n[nH]1`, the GI50 in the experiment on 786-0, in the experiment with A498, in the experiment with CCRF-CEM, with COLO 205, in the experiment on HCT-116 and in the experiment on HOP-62 was > 100 µM (inactive) in each case. For the same compound, the GI50 in the experiment on Hs-578T is > 100 µM (inactive); in the experiment with K562, > 100 µM (inactive); in the experiment with LOX IMVI, 71.1 µM (inactive); in the experiment on MDA-MB-231 it was > 100 µM (inactive); with MDA-N, > 100 µM (inactive); in the experiment with NCI/ADR-RES it was > 100 µM (inactive). Besides, the GI50 in the experiment on OVCAR-5, in the experiment with RXF 393, with SF-268, with SF-295, in the experiment on SK-MEL-2 and in the experiment with SK-OV-3 was > 100 µM (inactive) in each case. Moreover, the GI50 with U-251 is > 100 µM (inactive).

Regarding `O=C(CC(C(=O)c1ccco1)c1ccco1)c1ccco1` (stereo unspecified), the GI50 with 786-0 is > 100 µM (inactive); in the experiment with A498 it was > 100 µM (inactive); with CCRF-CEM it was 71.1 µM (inactive); with COLO 205, > 100 µM (inactive); in the experiment on HCT-116, > 100 µM (inactive); with HOP-62 it was > 100 µM (inactive). The GI50 in the experiment on Hs-578T was > 100 µM (inactive); in the experiment with K562, > 100 µM (inactive); in the experiment on LOX IMVI, > 100 µM (inactive); in the experiment on MDA-MB-231, 78.9 µM (inactive); with MDA-N, > 100 µM (inactive); in the experiment with NCI-H522 it was > 100 µM (inactive). Moreover, the GI50 in the experiment on NCI/ADR-RES, with OVCAR-5, in the experiment on RXF 393, with SF-268, in the experiment on SF-295 and with SK-OV-3 was > 100 µM (inactive) in each case. Moreover, the GI50 in the experiment with U-251 is > 100 µM (inactive).
